The source of these data is US20090123389A1, “Methods for modulating Th17 cell development in the treatment and prevention of cellulite” (priority 2007, published 2009).

For data set [1], the system named is Xenopus feeding stage tadpoles. Description: Toxicity in Xenopus feeding stage tadpoles. Conditions: 400 nM HF, treatment for 7 days.
For data set [2], the system named is human memory T cells (CD4+ CD45RO+). Description: IL-17 and IFNγ expression by human memory T cells co-cultured with monocytes. The conditions noted are these: 100 nM HF, 6 days. The class given is cell-based. How it is done: FIG. 10F is an illustration depicting purified primary human memory T cells (CD4^+ CD45RO^+) activated by anti-CD3/anti-CD28 coated beads in co-culture with CD14^+ monocytes and treated with DMSO, 100 nM HF or 100 nM MAZ1310. T cells were expanded for 6 days and intracellular cytokine expression was determined following restimulation with PMA plus ionomycin in the presence of brefeldin A.
Human T cell isolation and activation: Resting CD4^+ T cells were isolated from PBMC of healthy human donors using Dynal CD4 Positive Isolation Kit (Invitrogen, Carlsbad, Calif.) as previously described (M. Sundrud et al., Blood 106, 3440, 2005). CD4^+ cells were further purified to obtain memory T cells by staining with PE-conjugated anti-human CD45RO-PE antibodies (BD Biosciences), and sorting on a FACSAria cytometer (BD Biosciences). Following purification, cells were greater than 99% CD4^+ CD45RO^+. […] T cells were expanded in the presence HF or MAZ1310 as indicated for 6 days and intracellular cytokine expression was determined by intracellular staining.
Detection of cytokine production: Cytokines secreted into media supernatant were measured using the mouse Th1/Th2 cytometric bead array (CBA, BD Pharmingen) in accordance with manufacturers instructions. […]

Data set [3] relates to radiation induced fibrosis. Conditions: IP, 1-5 μg/mouse; cited from earlier work.
The next data set deals with dermal fibroblasts. Description: Spreading and contractile activity of dermal fibroblasts on Type I collagen. It counts as cell-based, human. How it is done: Inhibitors of cellulite formation are also identified by observing the effect of the test compound on fibroblast behavior. In this assay, a control population of primary dermal fibroblasts are cultured in a matrix of Type I collagen, mimicking the interstitial matrix of the dermis and hypodermis, such that the fibroblasts attach to the substratum and spread, exerting contractile force on the surrounding interstitial matrix. In the test population, primary dermal fibroblasts are incubated on a matrix of Type I collagen in the presence of a test compound for a predetermined length of time, e.g., 24 hrs. The ability of the dermal fibroblasts to attach to the substratum and spread is then observed.
An assay is provided to test the effects of HF and other selective Th17 inhibitors on the behavior of cells likely to provide the basis for the structural features of cellulite—dermal fibroblasts and myofibroblasts. When human primary dermal fibroblasts are cultured in a matrix of Type I collagen, mimicking the interstitial matrix of the dermis and hypodermis, they attach to the substratum and spread, exerting contractile force on the surrounding interstitial matrix. […] The ability of the dermal fibroblasts to attach and spread when cultured in the presence of the Th17 inhibitor is detected.

SMILES strings stand for the structures.

As to `O=C(CC1NCCCC1O)Cn1cnc2cc(Br)c(Cl)cc2c1=O` (racemic) [HF, 7-bromo-6-chloro-3-[3-(3-hydroxy-2-piperidinyl)-2-oxopropyl]-4(3H)-quinazolinone], in data set [1], the “toxic effects in tadpoles” value is “does not have detectable toxic effects”. Also, in data set [2], the “IFNγ expression by human T cells” value is listed as “essentially unaffected”; the “percentage of human T cells expressing IL-17 and amount of IL-17 produced” value is recorded as “greatly reduced”. In addition, in data set [3], the radiation induced fibrosis result is on record as “prevented radiation induced fibrosis” and the “toxic effect in mice” value was “without evident toxic effect”. Further, the “spreading and contractile activity of dermal fibroblasts” value in the data set with dermal fibroblasts is “prevents the spreading and contractile activity”.
